Patent US9403806B1, “Cognition enhancing compounds and compositions, methods of making, and methods of treating” (NeuroSolis, Inc., priority 2010, dated 2016)
Values belong to the compound of their own block, whether it stands above or below them.

Tests used:
[1] = test system: pooled male human liver microsomes; experiment: Metabolism in human liver microsomes, Example 45; type: in vitro ADME
Outline: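 Pooled male human liver microsomes sampled every 2 hours, reactions stopped with 1% formic acid. After centrifugation and ultrafiltration, remaining parent compound quantified by reverse-phase C8 LC/MS/MS with electrospray and MRM transitions against a standard calibration curve.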

CD-1 Mice = experiment: Novel object recognition assay; type: in vivo; conditions: oral dose 3.0 mg/kg, 1 hr inter-trial interval
Excerpt: Object recognition memory—judgment of the prior occurrence of objects—is a key part of human memory, and is commonly impaired in neurodegenerative diseases, such as Alzheimer's disease (Winters B D et al Neurosci Behav Rev 32 (2008) 1055-70). This may be modeled in laboratory rodents using delayed spontaneous novel object recognition, which tests the ability of an animal to recognize an object it has previously been exposed to, after a delay. Drugs may be evaluated for their ability to improve the animal's ability to remember, recall or recognize objects in this model.
CD-1 Mice (males, 7-8 weeks old) were fasted for 16 hrs and orally dosed with compounds of interest 30 min before experiments began. Throughout those 30 min, animals were left in their home cages except during a 1 min handling habituation session at 10 min post-dosing. All handling and experiments were carried out under low, indirect light during the hours between 8 am and 3 pm. Compound 122a and donepezil were dissolved in PBS. […] Mouse activity was recorded using a digital video camera and evaluated after the trial. The time each mouse spent with its nose in contact with either object (investigation) was recorded for each minute of T2, and a Discrimination Score (D Score) was calculated using the following formula once the animal completed a total of 1 min of investigation. […]

in vitro = conditions: PAMPA
[2] = rat, in vivo, po
human FMO1 Supersomes = biological target: T1, human FMO1 Supersomes (Homo sapiens, UniProt Q01740); experiment: Metabolism by flavin monoxygenase 1 (FMO1) Supersomes; type: in vitro ADME; conditions: after 6 hours (FIG. 2)
T1 construct: purchased BD Biosciences 456241
T1 sequence (Q01740 1-532): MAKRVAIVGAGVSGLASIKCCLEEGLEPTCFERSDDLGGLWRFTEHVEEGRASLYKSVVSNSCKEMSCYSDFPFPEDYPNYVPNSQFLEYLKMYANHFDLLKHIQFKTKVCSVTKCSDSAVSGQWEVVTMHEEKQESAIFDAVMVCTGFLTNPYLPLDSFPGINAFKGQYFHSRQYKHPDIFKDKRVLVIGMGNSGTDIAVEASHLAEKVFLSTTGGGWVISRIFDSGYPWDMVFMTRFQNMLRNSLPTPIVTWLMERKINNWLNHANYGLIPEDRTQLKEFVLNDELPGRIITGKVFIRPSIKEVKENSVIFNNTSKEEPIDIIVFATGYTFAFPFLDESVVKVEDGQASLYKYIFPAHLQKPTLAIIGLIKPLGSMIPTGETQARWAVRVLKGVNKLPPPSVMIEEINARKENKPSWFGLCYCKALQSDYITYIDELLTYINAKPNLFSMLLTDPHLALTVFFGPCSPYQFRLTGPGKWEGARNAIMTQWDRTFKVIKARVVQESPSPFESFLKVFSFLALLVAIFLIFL
Procedure: […] Aliquots were removed every 10 minutes, and 1% formic acid was added to halt the reaction. Samples were centrifuged, filtered through 0.2 micron spinfilter and the amount of each compound in the supernatants was quantitated using LC/MS/MS.

PAMPA test, Example 34 = conditions: PAMPA
[3] = biological target: T2, human muscarinic M3 receptors (Homo sapiens, UniProt P20309); experiment: IP production in A9L cells with human M3 receptors (IPOne TR-FRET), Example 28; type: cell-based
T2 construct: host or cells: A9L cells
Outline: (§1)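 A9L cells transfected with human M1 or M3 receptors, exposed to compound in medium with 10 mM LiCl and 10 mM HEPES (pH 7.4) for 60 min at 37 °C. IP in lysates measured by IPOne TR-FRET; efficacy expressed relative to full agonist (100%).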

[4] = test system: pooled male Sprague-Dawley rat liver microsomes; experiment: Metabolism by rat liver microsomes; type: in vitro ADME; conditions: 6 hours incubation (FIG. 3)
Procedure: (§2) Compounds were incubated with pooled male Sprague-Dawley rat liver microsomes (BD Biosciences, #452501) and an NADP-regenerating system in a phosphate buffer (pH 7.4) for a total of 6 hours. Aliquots were removed every 2 hours, and 1% formic acid was added to halt the reaction. Samples were centrifuged, filtered through 0.2 micron spinfilter and the amount of each compound in the supernatants was quantitated using LC/MS/MS.

[5] = biological target: T3, human muscarinic M1 receptors (Homo sapiens, UniProt P11229); experiment: IP production in A9L cells with human M1 receptors (IPOne TR-FRET), Example 28; type: cell-based
T3 construct: host or cells: A9L cells
T3 sequence (P11229 1-460): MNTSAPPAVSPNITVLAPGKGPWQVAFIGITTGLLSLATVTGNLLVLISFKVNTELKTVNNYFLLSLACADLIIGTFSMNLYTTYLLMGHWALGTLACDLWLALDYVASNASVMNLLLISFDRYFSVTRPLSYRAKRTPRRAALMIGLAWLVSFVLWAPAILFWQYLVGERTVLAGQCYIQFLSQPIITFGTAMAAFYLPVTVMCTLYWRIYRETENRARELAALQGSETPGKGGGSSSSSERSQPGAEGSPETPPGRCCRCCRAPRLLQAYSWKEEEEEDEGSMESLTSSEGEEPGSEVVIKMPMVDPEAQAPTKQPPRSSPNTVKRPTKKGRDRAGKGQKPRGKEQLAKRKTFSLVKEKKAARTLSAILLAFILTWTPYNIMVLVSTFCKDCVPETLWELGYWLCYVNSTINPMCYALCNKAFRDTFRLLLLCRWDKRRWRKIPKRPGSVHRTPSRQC
Outline: as §1

[6] = test system: pooled male human liver microsomes; experiment: Metabolism by human liver microsomes, Example 33; type: in vitro ADME; conditions: 6 hours incubation (FIGS. 4A, 4B)
Procedure: as §2, with “human” for “Sprague-Dawley rat”, “#452172)” for “#452501)”

[7] = percentage of maximal stimulation by carbachol
[8] = potency relative to carbachol at its EC50, semi-quantitative

T2 sequence (P20309 whole entry): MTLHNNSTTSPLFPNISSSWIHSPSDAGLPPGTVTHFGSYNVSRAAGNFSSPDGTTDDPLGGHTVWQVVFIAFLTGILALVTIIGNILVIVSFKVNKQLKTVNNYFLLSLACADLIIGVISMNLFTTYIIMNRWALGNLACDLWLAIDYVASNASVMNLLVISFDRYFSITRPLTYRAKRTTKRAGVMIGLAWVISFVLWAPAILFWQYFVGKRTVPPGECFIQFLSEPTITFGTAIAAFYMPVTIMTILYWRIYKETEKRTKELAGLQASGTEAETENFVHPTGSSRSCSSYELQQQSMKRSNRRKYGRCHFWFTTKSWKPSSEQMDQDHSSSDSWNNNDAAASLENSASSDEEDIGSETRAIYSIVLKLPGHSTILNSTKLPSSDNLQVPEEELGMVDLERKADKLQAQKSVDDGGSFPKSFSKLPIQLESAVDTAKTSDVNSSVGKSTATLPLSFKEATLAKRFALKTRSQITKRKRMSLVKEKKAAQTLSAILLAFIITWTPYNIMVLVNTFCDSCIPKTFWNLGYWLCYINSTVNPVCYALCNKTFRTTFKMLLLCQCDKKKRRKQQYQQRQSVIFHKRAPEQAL

- Loss at 6 hrs (%) [1]: 100%
Structure (SMILES): CCCCCCOc1nsnc1C1=CCCN(C)C1 [Xanomeline, reference compound]
- Mean D Score (CD-1 Mice): 72.05%

- Papp (in vitro): 0.26 ×10⁻⁶ cm/s
- Brain/plasma ratio [2]: Very low
Structure (SMILES): CNC(=C[N+](=O)[O-])NCCSCc1ccc(CN(C)C)o1 [Ranitidine]

Structure (SMILES): COc1cc2c(cc1OC)C(=O)C(CC1CCN(Cc3ccccc3)CC1)C2 (stereo not drawn) [Donepezil]
- Mean D Score (CD-1 Mice): 70.35%

- extent of metabolism in FMO Supersomes (in words) (human FMO1 Supersomes): almost completely metabolized
- Papp (PAMPA test, Example 34): 12.8 ×10⁻⁶ cm/s
- huM3/A9L Smax [3, 7]: 39%
- huM3/A9L ED50 relative to CCh* [3, 8]: + (+ potency 2-10x CCh)
- metabolism in rat liver microsomes (in words) [4]: nearly completely metabolized
- potency and efficacy at M1 muscarinic receptors (in words) ([5]; huM1/A9L): reasonable potency and efficacy
- huM1/A9L Smax [5, 7]: 72%
- huM1/A9L ED50 relative to CCh* [5, 8]: + (+ potency 2-10x CCh)
- metabolism in human liver microsomes (in words) [6]: nearly completely metabolized
Structure (SMILES): Cc1noc(C2=CCCN(C)C2)n1 [Compound 36, 3-methyl-5-(1-methyl-1,2,5,6-tetrahydropyridin-3-yl)-1,2,4-oxadiazole]
- selectivity between M1 and M3 receptors ([5]; huM1 versus huM3 A9L cells): shows some selectivity for M1 versus M3 receptors
